Experimental data reported in patent publication US20240002375A1, “2-(INDAZOL-5-YL)-6-(PIPERIDIN-4-YL)-1,7-NAPHTHYRIDINE DERIVATIVES AND RELATED COMPOUNDS AS MODULATORS FOR SPLICING NUCLEIC ACIDS AND FOR THE TRE” (REMIX THERAPEUTICS INC., priority 2020, published 2024).
pIC50: −log10 of the molar value. Where a name gives a salt, the structure may show the parent alone.

Tests used:
Format in all cases: cell-based
[1] = tested on: HTT mRNA; experiment: Splicing assay (RT-qPCR) of HTT mRNA alternative junction (AJ) and canonical junction (CJ); conditions: A673 or K562 cells, 24 hours; for pIC50: decrease in CJ mRNA, read-out: HTT CJ IC50; for AC50: increase in AJ mRNA, read-out: HTT AJ AC50
How it was run: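 A673 (adherent, 24 h pre-plating) or K562 cells treated 24 h at 37 °C with an 11-point 3-fold dilution series, top 10 uM, DMSO ≤0.25%. Lysates analysed by one-step RT-qPCR for HTT canonical (CJ) and alternative-exon (AJ) junctions, normalised to PPIA (A673) or GAPDH/GUSB (K562).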

[2] = tested on: SMN2 CJ mRNA; experiment: Gene panel canonical junction qPCR splicing assay, SMN2; conditions: Table 4, read-out: SMN2 IC50 (decrease in CJ mRNA levels)
How it was run: (§1)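 A673 or K562 cells treated with compound; canonical-junction mRNA measured by RT-qPCR with junction-spanning primer/probe sets, normalized to GAPDH, GUSB or PPIA and DMSO (2^−ΔΔCt). IC50 for CJ decrease from 4-parameter logistic fit of percentage response.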

[3] = tested on: Target C CJ mRNA; experiment: Gene panel canonical junction qPCR splicing assay, Target C; conditions: Table 4, read-out: Target C IC50 (decrease in CJ mRNA levels)
How it was run: as §1

[4] = tested on: HTT CJ mRNA; experiment: Gene panel canonical junction qPCR splicing assay, HTT; conditions: Table 4, read-out: HTT IC50 (decrease in CJ mRNA levels)
How it was run: as §1

pIC50 [1] | pIC50 [2] | pIC50 [3] | pIC50 [4] | Structure (SMILES) | AC50 [1] [nM]
5.00 to 6.00 | > 7.00 | 5.00 to 6.00 | 5.00 to 6.00 | Cn1cc2cc(-c3ccc4c(F)c(C5CCNCC5)ccc4n3)c(O)cc2n1 [Compound 115, 5-[5-fluoro-6-(piperidin-4-yl)quinolin-2-yl]-2-methylindazol-6-ol] | 1000 to 10000
> 7.00 | > 7.00 | > 7.00 | > 7.00 | Cc1c(O)c(-c2ccc3nc(N4CC[C@H](NC5CC5)C4)ccc3n2)cc2cn(C)nc12 (single isomer, unassigned) [Compound 260] | < 100
> 7.00 | > 7.00 | > 7.00 | > 7.00 | Cc1nc2cc(O)c(-c3ccc4nc(N5CC[C@@H](NC(C)C)C5)ccc4n3)cc2o1 (single isomer, unassigned) [Compound 232, 6-{6-[3-(isopropylamino)pyrrolidin-1-yl]-1,5-naphthyridin-2-yl}-2-methyl-1,3-benzoxazol-5-ol] | < 100
> 7.00 | > 7.00 | > 7.00 | > 7.00 | Cn1cc2cc(-c3ccc4nc(N5CCC(NC6CC6)C5)ccc4n3)c(O)cc2n1 (stereo not drawn) [Compound 158] | < 100
5.00 to 6.00 | > 7.00 | 5.00 to 6.00 | 5.00 to 6.00 | Cn1cc2cc(-c3ccc4nc(N5CCNC(C)(C)C5)ccc4n3)c(O)cc2n1 [Compound 120, 5-[6-(3,3-dimethylpiperazin-1-yl)-1,5-naphthyridin-2-yl]-2-methylindazol-6-ol] | 1000 to 10000
6.00 to 7.00 | > 7.00 | 6.00 to 7.00 | 6.00 to 7.00 | Cc1cn2cc(-c3ccc4nc(N5CCC(NC(C)(C)C)C5)ccc4n3)cc(C)c2n1 (stereo not drawn) [Compound 201] | 100 to 1000
> 7.00 | > 7.00 | > 7.00 | > 7.00 | Cc1nc2c(F)c(O)c(-c3ccc4nc(N5CC[C@H](NC6CC6)C5)ccc4n3)cc2o1 (single isomer, unassigned) [Compound 254, 6-{6-[3-(cyclopropylamino)pyrrolidin-1-yl]-1,5-naphthyridin-2-yl}-4-fluoro-2-methyl-1,3-benzoxazol-5-ol] | < 100
5.00 to 6.00 | > 7.00 | < 5.00 | 5.00 to 6.00 | CCNC1CCN(c2ccc3nc(-c4cc5cn(C)nc5cc4O)ccc3n2)CC1 [Compound 131, 5-[6-[4-(ethylamino)piperidin-1-yl]-1,5-naphthyridin-2-yl]-2-methylindazol-6-ol] | > 10000
5.00 to 6.00 | > 7.00 | 6.00 to 7.00 | 5.00 to 6.00 | Cn1cc2cc(-c3ccc4nc(N5CCNCC5)ccc4n3)c(O)cc2n1 [Compound 136] | 1000 to 10000
> 7.00 | > 7.00 | > 7.00 | > 7.00 | Cc1cn2nc(-c3ccc4nc(N5CCC(NC(C)(C)C)C5)ccc4n3)cc2c(C)n1 (stereo not drawn) [Compound 187] | < 100
> 7.00 | > 7.00 | > 7.00 | > 7.00 | Cc1nc2c(F)c(O)c(-c3ccc4nc(N5CC[C@H](NC(C)(C)C)C5)ccc4n3)cc2o1 (single isomer, unassigned) [Compound 255, 6-{6-[3-(tert-butylamino)pyrrolidin-1-yl]-1,5-naphthyridin-2-yl}-4-fluoro-2-methyl-1,3-benzoxazol-5-ol] | < 100
> 7.00 | > 7.00 | 6.00 to 7.00 | > 7.00 | CN[C@@H]1CCN(c2ccc3nc(-c4cc5cn(C)nc5cc4O)ccc3n2)C1 [Compound 172] | 100 to 1000
5.00 to 6.00 | > 7.00 | 5.00 to 6.00 | 5.00 to 6.00 | Cn1cc2c(O)c(-c3ncc4nc(C5CCNCC5)ccc4n3)ccc2n1 [Compound 108, 2-methyl-5-[6-(piperidin-4-yl)pyrido[3,2-d]pyrimidin-2-yl]indazol-4-ol] | 1000 to 10000
5.00 to 6.00 | 6.00 to 7.00 | 5.00 to 6.00 | 5.00 to 6.00 | Cn1cc2cc(-c3ccc4nc(OC5CNC5)ccc4n3)c(O)cc2n1 [Compound 159] | 1000 to 10000
6.00 to 7.00 | < 5.00 | 5.00 to 6.00 | 6.00 to 7.00 | Cc1cn2nc(-c3ccc4nc(C5CCNCC5)ccc4n3)c(O)cc2n1 [Compound 103, 2-methyl-6-[6-(piperidin-4-yl)-1,5-naphthyridin-2-yl]imidazo[1,2-b]pyridazin-7-ol] | 100 to 1000
6.00 to 7.00 | 6.00 to 7.00 | 6.00 to 7.00 | 6.00 to 7.00 | Cc1cn2cc(-c3ccc4nc(C5CCNCC5)ccc4n3)c(O)c(C)c2n1 [Compound 151, 2,8-dimethyl-6-(6-(piperidin-4-yl)-1,5-naphthyridin-2-yl)imidazo[1,2-a]pyridin-7-ol hydrochloride] | 100 to 1000
5.00 to 6.00 | 5.00 to 6.00 | 5.00 to 6.00 | 5.00 to 6.00 | Cn1cc2nc(-c3ccc4nc(N5CCC(NC(C)(C)C)C5)ccc4n3)c(F)cc2n1 (stereo not drawn) [Compound 207] | 1000 to 10000
> 7.00 | > 7.00 | > 7.00 | > 7.00 | Cn1cc2cc(-c3ccc4nc(N5CC[C@@H](NC(C)(C)C)C5)ccc4n3)c(O)cc2n1 [Compound 153, 5-{6-[(3R)-3-(tert-butylamino)pyrrolidin-1-yl]-1,5-naphthyridin-2-yl}-2-methylindazol-6-ol] | < 100
> 7.00 | > 7.00 | > 7.00 | > 7.00 | Cc1c(O)c(-c2ccc3nc(N4CC[C@@H](NC5CC5)C4)ccc3n2)cc2cn(C)nc12 (single isomer, unassigned) [Compound 259] | < 100
6.00 to 7.00 | > 7.00 | 5.00 to 6.00 | 6.00 to 7.00 | C[C@@H]1CC(c2ccc3nc(-c4cc5cn(C)nc5cc4O)ccc3n2)C[C@H](C)N1 (stereo partly drawn) [Compound 137, 5-[6-[(2R,6S)-2,6-dimethylpiperidin-4-yl]-1,5-naphthyridin-2-yl]-2-methylindazol-6-ol] | 100 to 1000
> 7.00 | > 7.00 | > 7.00 | > 7.00 | Cc1cn2nc(-c3ccc4nc(C5CCNCC5)ccc4n3)c(O)c2c(C)n1 [Compound 150, 4,6-dimethyl-2-[6-(piperidin-4-yl)-1,5-naphthyridin-2-yl]pyrazolo[1,5-a]pyrazin-3-01] | < 100
5.00 to 6.00 | > 7.00 | 5.00 to 6.00 | 5.00 to 6.00 | CC1CN(c2ccc3nc(-c4cc5cn(C)nc5cc4O)ccc3n2)CCN1C (stereo not drawn) [Compound 118, 5-[6-(3,4-dimethylpiperazin-1-yl)-1,5-naphthyridin-2-yl]-2-methylindazol-6-ol] | 1000 to 10000
> 7.00 | > 7.00 | > 7.00 | > 7.00 | CC(C)N[C@@H]1CCN(c2ccc3nc(-c4cc5cn(C)nc5cc4O)ccc3n2)C1 [Compound 173] | < 100
> 7.00 | > 7.00 | 6.00 to 7.00 | > 7.00 | Cc1nc2cc(O)c(-c3ccc4nc(N5CC[C@@H](NC6(C)CC6)C5)ccc4n3)cc2o1 (single isomer, unassigned) [Compound 258, 2-methyl-6-(6-{3-[(1-methylcyclopropyl)amino]pyrrolidin-1-yl}-1,5-naphthyridin-2-yl)-1,3-benzoxazol-5-ol] | < 100
< 5.00 | < 5.00 | < 5.00 | < 5.00 | COc1cc2nn(C)cc2cc1-c1ccc2cc(C3CCNCC3)c(F)cc2n1 [Compound 145, 7-fluoro-2-(6-methoxy-2-methylindazol-5-yl)-6-(piperidin-4-yl)quinoline] | > 10000
> 7.00 | > 7.00 | > 7.00 | > 7.00 | Cn1cc2cc(-c3ccc4nc(N5CCC(N)C5)ccc4n3)c(O)c(F)c2n1 (stereo not drawn) [Compound 238, 5-[6-(3-aminopyrrolidin-1-yl)-1,5-naphthyridin-2-yl]-7-fluoro-2-methylindazol-6-ol] | < 100
> 7.00 | > 7.00 | > 7.00 | > 7.00 | Cn1cc2cc(-c3ccc4nc(N5CC[C@@H](N[C@H]6C[C@H](F)C6)C5)ccc4n3)c(O)cc2n1 [Compound 246] | < 100
5.00 to 6.00 | 6.00 to 7.00 | < 5.00 | 5.00 to 6.00 | Cn1cc2c(O)c(-c3cc4ccc(C5CCNCC5)nc4cn3)cc(Br)c2n1 [Compound 141] | 1000 to 10000

Structure (SMILES) | pIC50 [1] | pIC50 [2] | pIC50 [3] | pIC50 [4] | AC50 [1] [nM]
CN(c1ccc2nc(-c3cc4cn(C)nc4cc3O)ccc2n1)C1CC(C)(C)NC(C)(C)C1 [Compound 130] | < 5.00 | 6.00 to 7.00 | < 5.00 | < 5.00 | > 10000
CN1CCC(N(C)c2ccc3nc(-c4cc5cn(C)nc5cc4O)ccc3n2)CC1 [Compound 126] | 6.00 to 7.00 | > 7.00 | > 7.00 | 6.00 to 7.00 | 100 to 1000
